Drawing on patent US5880111A, “Therapeutic derivations of diphosphonates” (priority 1995, dated 1999), this text covers MIC for 2 compounds.

Converted amounts (≈) assume the structure as drawn. Where two headings read alike, the source gives them in different places.

Holding throughout (test): MIC by broth-dilution method
Format in all cases: cell-based

Assay [1] has as its system Staphylococcus aureus ATCC 25923. How it is done: (§1) The antibacterial action of the product was evaluated against the following bacterial strains:
Gram positive bacteria: Staphylococcus aureus ATCC 25923
(§2) The sensitivity of the foregoing bacterial strains to both the product of Example 1 and norfloxacin was investigated by the broth-dilution method, and the minimal inhibitory concentration (MIC) values were assessed. MIC was defined as the lowest concentration ([…]) at which no bacterial growth could be observed visually.
(§3) The antibiotics were dissolved in dimethylsulfoxide (DMSO) and the solution was diluted by nine consecutive 2-fold dilutions in Nutrient-broth (NB) culture medium. Aliquots (0.2 ml) from each of these diluted solutions were added to test tubes containing 1.6 ml NB culture medium. The antibiotics were investigated in the concentration range of 100-0.38 μg/ml.
(§4) After overnight culture in NB at 37° C., the bacterial cultures were diluted so that their optical densities (OD) at 620 nm were between 0.08-0.1.
(§5) Incubation of the test tubes took place in a thermostat at 37° C. The test tubes were inspected visually after 24 and 48 hours. The margin of error of in vitro sensitivity determination was ± one dilution step. MIC values were read after 48 hours of incubation. The MIC value was the lowest antibiotic concentration at which no bacterial growth was observed, i.e. the culture medium remained clear. […]

Assay [2] relates to Staphylococcus epidermidis OKI 110001. As for the experimental part: as §1
Staphylococcus epidermidis OKI 110001
as §2, §3, §4, §5

The subject of assay [3] is Streptococcus faecalis OKI 80171. The conditions noted are these: Enterococcus faecalis, OKI80171, Nutrient-broth, 37° C., read after 48 hours, mean of three independent experiments. As for the experimental part: as §1
Streptococcus faecalis OKI 80171
as §2, §3, §4, §5

Assay [4] relates to Salmonella typhi OKI 10084. The conditions noted are these: Salmonella enterica. As for the experimental part: as §1
Gram negative bacteria: Salmonella typhi OKI 10084
as §2, §3, §4, §5

In assay [5] the test system is Escherichia coli OKI 35034. As for the experimental part: as §1
Escherichia coli OKI 35034
as §2, §3, §4, §5

Assay [6] deals with Proteus vulgaris OKI 60002. As for the experimental part: as §1
Proteus vulgaris OKI 60002
as §2, §3, §4, §5

Assay [7] relates to Pseudomonas aeruginosa ATCC 27853. As for the experimental part:
as §1
Pseudomonas aeruginosa ATCC 27853
as §2, §3, §4, §5

Broadly, the MIC is the lowest concentration found to suppress growth. In the case of `CCn1cc(C(=O)O)c(=O)c2cc(F)c(N3CCNCC3)cc21` [NORFLOXACIN, norfloxacin], the MIC in assay [1] (ATCC25923, Staphylococcus aureus ATCC 25923, Nutrient-broth, 37° C., read after 48 hours, mean of three independent experiments, read-out: MIC) is 6.25 µg/mL (≈ 19.6 µM); in assay [2] (OKI110001, Staphylococcus epidermidis OKI 110001, Nutrient-broth, 37° C., read after 48 hours, only two experiments, read-out: MIC), 6.25 µg/mL (≈ 19.6 µM); in assay [3], 12.5 µg/mL (≈ 39.1 µM); in assay [4] (TYPHI, 48 h) it was 12.5 µg/mL (≈ 39.1 µM); in assay [5] (OKI35034, Escherichia coli OKI 35034, Nutrient-broth, 37° C., read after 48 hours, mean of three independent experiments, read-out: MIC) it was 6.25 µg/mL (≈ 19.6 µM); in assay [6] (OKI60002, Proteus vulgaris OKI 60002, Nutrient-broth, 37° C., read after 48 hours, mean of three independent experiments, read-out: MIC), 6.25 µg/mL (≈ 19.6 µM). Further, the MIC in assay [7] (ATCC27853, Pseudomonas aeruginosa ATCC 27853, Nutrient-broth, 37° C., read after 48 hours, mean of three independent experiments, read-out: MIC) was 25 µg/mL (≈ 78.3 µM).

As for `CCOP(=O)(OCC)C(CN1CCN(c2cc3c(cc2F)c(=O)c(C(=O)O)cn3CC)CC1)P(=O)(OCC)OCC` [Example 1, 6-Fluoro-1-ethyl-7-{4-[2,2-bis(diethoxyphosphono)-1-ethyl]-l-piperazyl}-4-oxo-1,4-dihydroquinoline-3-carboxylic acid], the MIC was 12.5 µg/mL (≈ 20.2 µM) in assay [1] (Staphylococcus aureus, ATCC25923, 48 h); 12.5 µg/mL (≈ 20.2 µM) in assay [2] (Staphylococcus epidermidis, OKI110001, 48 h); 12.5 µg/mL (≈ 20.2 µM) in assay [3]; 25 µg/mL (≈ 40.4 µM) in assay [4] (Salmonella typhi OKI 10084, Nutrient-broth, 37° C., read after 48 hours, mean of three independent experiments, read-out: MIC); 25 µg/mL (≈ 40.4 µM) in assay [5] (Escherichia coli, OKI35034, 48 h); 3.12 µg/mL (≈ 5.04 µM) in assay [6] (Proteus vulgaris, OKI60002, 48 h). The compound further returned an MIC in assay [7] (Pseudomonas aeruginosa, ATCC27853, 48 h) of 50 µg/mL (≈ 80.7 µM).
